From US12303501B2, “Lipophilic active oral film formulation and method of making the same” (INTELGENX CORP., priority 2018, dated 2025) come the findings set out here.

This series in a line: viscosity of aqueous glycerol solutions (DV1 Viscometer). Type of series: physicochemical. Conditions: room temperature (23.5° C.), SC4-21 spindle. From the text: Specifically, larger differences in the viscosity between the oil and the aqueous phases will hinder the emulsion formation and promote phase separation. The formulations disclosed herein thus preferably include viscosity modifying agents to increase the viscosity of the aqueous phase and improve the emulsion stability by diminishing the rise of the oil droplets to the surface. Table 3 contain examples of increasing the viscosity of an aqueous solution using glycerol/glycerine. Viscosity modifiers are added to the aqueous phase to increase the viscosity in and attempt to mitigate the difference in viscosity between the oil phase and the aqueous phases and thus promote emulsion stability.

The molecule `OCC(O)CO` [100%, glycerol] displayed a Viscosity of 905.0 cP.
